Results from patent US9447135B2, “Semi-synthetic mithramycin derivatives with anti-cancer activity” (UNIVERSITY OF KENTUCKY RESEARCH FOUNDATION, priority 2012, dated 2016).

Key:
[1] = tested on: several cancer cell lines; settings: cited from earlier work
[2] = tested on: Ewing sarcoma (TC32, 5838, SKES1) and non-Ewing (A459 (lung) and PC3 (prostate)) cancer cell lines; test: Selectivity assay, Ewing sarcoma versus non-Ewing cell panel (72 hr cytotoxicity)
[3] = tested on: ES-7 Ewing sarcoma cell line; test: 72 hour cytotoxicity, ES-7; assay type: cell-based; settings: Ewing sarcoma cell line ES-7, 72 hour
Method: (§1) The cytotoxicity of a subgroup of the MTM SA analogues was tested against various Ewing sarcoma cell lines and non-Ewing sarcoma cell lines over a 72 hour period. Each analogue was checked individually with a range of concentrations to determine the IC50 of the molecule in actively growing cell cultures.

[4] = tested on: ES-4 Ewing sarcoma cell line; test: 72 hour cytotoxicity, ES-4; assay type: cell-based; settings: Ewing sarcoma cell line ES-4, 72 hour
Method: as §1

[5] = tested on: TC32 Ewing sarcoma cell line; test: 72 hour cytotoxicity, TC32; assay type: cell-based; settings: Ewing sarcoma cell line TC32, 72 hour; read-out: IC50 (nM) TC 32
Method: as §1

[6] = tested on: U118 non-Ewing sarcoma cell line; test: 72 hour cytotoxicity, U118; assay type: cell-based; settings: non-Ewing sarcoma cell line U118, 72 hour
Method: as §1

[7] = tested on: A549, human non-small cell lung cancer cells; test: 72 hour cytotoxicity, A549 (resazurin); assay type: cell-based; settings: non-Ewing sarcoma cell line A549, 72 hour
Method: The cytotoxic effects of the side chain modifications of SA were investigated in order to determine whether the modification were beneficial to the drug structure. All cytotoxicity assays were performed with A549, human non-small cell lung cancer cells. A549 cells were cultured as specified from ATCC at 37° C., 5% CO2. The cells were added to a 96 well plate (5,000 cells/well) and permitted to attach for 24 h. After 24 h culture media were replaced with the side chain modified MTM SA derivative containing media at differing concentrations. The cells were incubated with the drug containing media for 72 hrs total (n=8). Cell viability was determined using a resazurin assay that signifies mitochondrial metabolic activity in living cells. […] of a 1 mM resazurin solution in PBS was added to the control and analogue-treated cells at the end of the treatment period. Cell viability was determined three hours later by reading the fluorescence at 560 nm (Ex)/590 nm (Em). The fluorescence signals were quantified using a Spectramax M5 plate reader (Molecular Devices) equipped with a SoftMaxPro software. Cytotoxicity was determined by calculating the half maximal inhibitory concentration (IC50) of each sample.
as §1

[8] = tested on: SK-ES-1 Ewing sarcoma cell line; test: 72 hour cytotoxicity, SK-ES-1; assay type: cell-based; settings: Ewing sarcoma cell line SK-ES-1, 72 hour
Method: as §1

[9] = tested on: TC71 Ewing sarcoma cell line; test: 72 hour cytotoxicity, TC71; assay type: cell-based; settings: Ewing sarcoma cell line TC71, 72 hour
Method: as §1

[10] = tested on: ES-8 Ewing sarcoma cell line; test: 72 hour cytotoxicity, ES-8; assay type: cell-based; settings: Ewing sarcoma cell line ES-8, 72 hour
Method: as §1

[11] = tested on: ES-2 Ewing sarcoma cell line; test: 72 hour cytotoxicity, ES-2; assay type: cell-based; settings: Ewing sarcoma cell line ES-2, 72 hour
Method: as §1

[12] = tested on: ES-3 Ewing sarcoma cell line; test: 72 hour cytotoxicity, ES-3; assay type: cell-based; settings: Ewing sarcoma cell line ES-3, 72 hour
Method: as §1

[13] = tested on: 5838 Ewing sarcoma cell line; test: 72 hour cytotoxicity, 5838; assay type: cell-based; settings: Ewing sarcoma cell line 5838, 72 hour
Method: as §1

[14] = tested on: HCT-116 non-Ewing sarcoma cell line; test: 72 hour cytotoxicity, HCT-116; assay type: cell-based; settings: non-Ewing sarcoma cell line HCT-116, 72 hour
Method: as §1

[15] = tested on: VCaP non-Ewing sarcoma cell line; test: 72 hour cytotoxicity, VCaP; assay type: cell-based
Method: as §1

[16] = tested on: RDES Ewing sarcoma cell line; test: 72 hour cytotoxicity, RDES; assay type: cell-based
Method: as §1

[17] = tested on: A673 Ewing sarcoma cell line; test: 72 hour cytotoxicity, A673; assay type: cell-based; settings: Ewing sarcoma cell line A673, 72 hour
Method: as §1

[18] = 72 hour cytotoxicity, RH30; assay type: cell-based; settings: Ewing sarcoma cell line RH30, 72 hour; read-out: IC50 (nM) RH 30
Method: as §1

In the case of `COC(C(=O)O)[C@@H]1Cc2cc3cc(OC4CC(OC5CC(O)C(O)C(C)O5)C(O)C(C)O4)c(C)c(O)c3c(O)c2C(=O)[C@H]1OC1CC(OC2CC(OC3CC(C)(O)C(O)C(C)O3)C(O)C(C)O2)C(O)C(C)O1` (stereo partly drawn) [MTM SA, mithramycin side chain carboxylic acid], the “activity compared to the parent MTM” value [1] is given as “significantly decreased activity”.

In the case of `COC(=O)[C@H](C)NC(=O)[C@@H](OC)[C@@H]1Cc2cc3cc(OC4CC(OC5CC(O)C(O)C(C)O5)C(O)C(C)O4)c(C)c(O)c3c(O)c2C(=O)[C@H]1OC1CC(OC2CC(OC3CC(C)(O)C(O)C(C)O3)C(O)C(C)O2)C(O)C(C)O1` (stereo partly drawn) [MTM SA-Ala], the “selectivity against Ewing sarcoma cells relative to non-Ewing cells” value ([2]; FIG. 9, right panel) was 9 fold, the “less potent than MTM” value ([2]; against Ewing sarcoma cells, relative to MTM) was “about 200 fold” and the “higher selectivity than MTM against Ewing sarcoma relative to non-Ewing cell lines” value ([2]; relative to MTM, 72 hr) was 3 fold.

For `CO[C@H](C(=O)C(C)=O)[C@@H]1Cc2cc3cc(OC4C[C@@H](OC5C[C@@H](O)[C@H](O)C(C)O5)[C@H](O)C(C)O4)c(C)c(O)c3c(O)c2C(=O)[C@H]1OC1C[C@@H](OC2C[C@@H](OC3C[C@](C)(O)[C@H](O)C(C)O3)[C@@H](O)C(C)O2)[C@H](O)C(C)O1` (stereo partly drawn) [MTM SDK], the “activity compared to the parent MTM” value [1] is given as “increased activity”.

Work on `COc1ccc2[nH]cc(CCNC(=O)[C@@H](OC)[C@@H]3Cc4cc5cc(OC6CC(OC7CC(O)C(O)C(C)O7)C(O)C(C)O6)c(C)c(O)c5c(O)c4C(=O)[C@H]3OC3CC(OC4CC(OC5CC(C)(O)C(O)C(C)O5)C(O)C(C)O4)C(O)C(C)O3)c2c1` (stereo partly drawn) [MTMSA-5-OMe Trypamine] yielded an IC50 [3] of 79 nM, an IC50 [4] of 63 nM and an IC50 [5] of 73 nM. The IC50 [6] was 58 nM, the IC50 [7] was 84 nM and the IC50 [8] was 63 nM. For the same compound, the IC50 [9] was 58 nM, the IC50 [10] was 75 nM and the IC50 [11] was 84 nM. The IC50 [12] was 157 nM and the IC50 [13] was 78 nM.

With `COC(=O)[C@@H](OC)[C@@H]1Cc2cc3cc(OC4CC(OC5CC(O)C(O)C(C)O5)C(O)C(C)O4)c(C)c(O)c3c(O)c2C(=O)[C@H]1OC1CC(OC2CC(OC3CC(C)(O)C(O)C(C)O3)C(O)C(C)O2)C(O)C(C)O1` (stereo partly drawn) [MTMSA-Me ester] the IC50 [3] was 51 nM, the IC50 [4] was 41 nM and the IC50 [5] was 67 nM. For the same compound, the IC50 [6] was 38 nM, the IC50 [7] was 99 nM and the IC50 [8] was 86 nM. The IC50 [9] was 46 nM, the IC50 [10] was 47 nM and the IC50 [11] was 76 nM. The IC50 [12] was 90 nM and the IC50 [13] was 193 nM.

Work on `COC(=O)[C@H](Cc1ccccc1)NC(=O)[C@@H](OC)[C@@H]1Cc2cc3cc(O[C@H]4C[C@@H](O[C@H]5C[C@@H](O)[C@H](O)[C@@H](C)O5)[C@H](O)[C@@H](C)O4)c(C)c(O)c3c(O)c2C(=O)[C@H]1O[C@H]1C[C@@H](O[C@H]2C[C@@H](O[C@H]3C[C@](C)(O)[C@H](O)[C@@H](C)O3)[C@H](O)[C@@H](C)O2)[C@H](O)[C@@H](C)O1` [MTMSA-Phe] yielded an IC50 [14] of 21 nM, an IC50 [15] of 32 nM and an IC50 [3] of 61 nM. For the same compound, the IC50 [4] was 35 nM, the IC50 [16] was 94 nM and the IC50 [17] was 109 nM. The IC50 [7] was 398 nM, the IC50 [18] was 136 nM and the “potency and selectivity in killing of Ewing sarcoma cells” value ([2]; compared with other MTM SA derivatives, FIG. 10) was “even more potent and highly selective in killing of Ewing sarcoma cells than other MTM SA derivatives”. It also gave an IC50 [10] of 59 nM, an IC50 [11] of 182 nM and an IC50 [12] of 363 nM.

`CO[C@H](C(=O)NCCc1c[nH]c2ccc(O)cc12)[C@@H]1Cc2cc3cc(OC4CC(OC5CC(O)C(O)C(C)O5)C(O)C(C)O4)c(C)c(O)c3c(O)c2C(=O)[C@H]1OC1CC(OC2CC(OC3CC(C)(O)C(O)C(C)O3)C(O)C(C)O2)C(O)C(C)O1` (stereo partly drawn) [MTMSA-Serotonin] gave an IC50 [3] of 753 nM, an IC50 [4] of 610 nM and an IC50 [5] of 667 nM. The IC50 [6] was 916 nM, the IC50 [7] was over 3000 nM and the IC50 [8] was 612 nM. It also gave an IC50 [9] of 671 nM, an IC50 [10] of 676 nM and an IC50 [11] of 749 nM. It also gave an IC50 [12] of 658 nM and an IC50 [13] of 690 nM.

For `CO[C@H](C(=O)NCCc1c[nH]c2ccccc12)[C@@H]1Cc2cc3cc(OC4CC(OC5CC(O)C(O)C(C)O5)C(O)C(C)O4)c(C)c(O)c3c(O)c2C(=O)[C@H]1OC1CC(OC2CC(OC3CC(C)(O)C(O)C(C)O3)C(O)C(C)O2)C(O)C(C)O1` (stereo partly drawn) [MTMSA-Tryptamine], the IC50 [3] was 86 nM, the IC50 [4] was 90 nM and the IC50 [5] was 110 nM. For the same compound, the IC50 [6] was 76 nM, the IC50 [7] was 196 nM and the IC50 [8] was 226 nM. The IC50 [9] was 78 nM, the IC50 [10] was 97 nM and the IC50 [11] was 155 nM. The IC50 [12] was 216 nM and the IC50 [13] was 439 nM.

`COC(=O)[C@H](Cc1ccc(O)cc1)NC(=O)[C@@H](OC)[C@@H]1Cc2cc3cc(OC4CC(OC5CC(O)C(O)C(C)O5)C(O)C(C)O4)c(C)c(O)c3c(O)c2C(=O)[C@H]1OC1CC(OC2CC(OC3CC(C)(O)C(O)C(C)O3)C(O)C(C)O2)C(O)C(C)O1` (stereo partly drawn) [MTMSA-Tyr] showed an IC50 [3] of 189 nM, an IC50 [4] of 138 nM and an IC50 [5] of 133 nM. The IC50 [6] was 231 nM, the IC50 [7] was 867 nM and the IC50 [8] was 306 nM. It also gave an IC50 [9] of 130 nM, an IC50 [10] of 171 nM and an IC50 [11] of 263 nM. For the same compound, the IC50 [12] was 266 nM and the IC50 [13] was 170 nM.
